For one assay, the system named is C57BL/6 mice. As to the kind of experiment: Acute oral glucose tolerance test. The class given is in vivo. Particulars: oral glucose tolerance test in mice, dose of 30 mg/kg, AUC t=0-120 min vs vehicle. As for the experimental part: 1) Acute Oral Glucose Tolerance Test
C57BL/6 mice were housed individually and fed a standard rodent chow diet. At approximately 11 weeks age, after a 5 h fast, these mice were orally treated with vehicle or test compounds 60 min before a glucose challenge (2 g/kg). Blood glucose levels were determined from tail bleeds taken at −60, 0, 15, 30, 60 and 120 min after the glucose challenge. The blood glucose excursion profile from t=0-120 min was used to calculate an area under the curve (AUC) for compound treatment. This AUC for compound treatment is compared to vehicle treatment.
In an oral glucose tolerance test in mice at dose of 30 mg/kg, Examples 6, 14 and 80 reduced glucose AUC levels by 40%, 30% and 60% respectively.

The next assay addresses T1, human GPR120 (Homo sapiens, UniProt Q5NUL3).
T1 construct: expressed in transfected cells; host or cells: CHOA12 cells
T1 sequence (Q5NUL3 1-361): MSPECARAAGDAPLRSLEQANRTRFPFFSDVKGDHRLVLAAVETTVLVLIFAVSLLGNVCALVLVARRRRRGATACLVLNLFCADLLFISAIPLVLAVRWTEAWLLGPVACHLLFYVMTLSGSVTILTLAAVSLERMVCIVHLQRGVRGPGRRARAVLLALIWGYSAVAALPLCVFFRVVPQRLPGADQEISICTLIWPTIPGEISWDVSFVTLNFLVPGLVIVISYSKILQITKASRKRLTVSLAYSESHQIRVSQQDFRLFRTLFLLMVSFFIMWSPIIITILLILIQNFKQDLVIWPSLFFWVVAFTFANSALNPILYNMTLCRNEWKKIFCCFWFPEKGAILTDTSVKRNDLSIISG
As to the kind of experiment: GPR120 pERK AlphaScreen SureFire assay (human). Particulars: CHO cells stably transfected with short form of human GPR120. The assay is classed as cell-based. Put shortly:
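CHOA12 cells stably expressing short-form human GPR120, serum-starved 2 h, were stimulated 7 min at 37 °C with compound (33.33 μM–0.56 nM, 11-point). pERK read by AlphaScreen SureFire; activation normalized to 50 μM linolenic acid and DMSO blank, EC50 by 4-parameter fit.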

This note sets out measurements from patent US8962660B2 (Bristol-Myers Squibb Company, priority 2013, dated 2015).

Structures are written as SMILES.

The EC50 is the concentration that produces a half-maximal response. For the compound `O=C(O)[C@H]1C[C@@H]1CCC12CCC(c3cccc(Oc4ccccc4)c3)(CC1)OC2` (single isomer, unassigned) [Example 14], the “reduced glucose AUC levels” value in the assay with C57BL/6 mice was found to be 30%. The EC50 on human GPR120 came out at 350 nM.

With `O=C(O)COCCC12CCC(c3cccc(Oc4ccccc4)c3)(CC1)OC2` [Example 6, 2-(2-(1-(3-Phenoxyphenyl)-2-oxabicyclo[2.2.2]octan-4-yl)ethoxy)acetic acid], the “reduced glucose AUC levels” value with C57BL/6 mice turned out to be 40%. The compound further displayed a concentration giving a half-maximal response (EC50) on human GPR120 of 560 nM.

As to `Cc1ccc(Oc2cc(F)cc(C34CCC(CCOCC(=O)O)(CC3)CO4)c2)cc1F` [Example 80, 2-(2-(1-(3-fluoro-5-(3-fluoro-4-methylphenoxy)phenyl)-2-oxabicyclo [2.2.2]octan-4-yl)ethoxy) acetic acid], the “reduced glucose AUC levels” value in the assay with C57BL/6 mice is recorded as 60%. At human GPR120, this compound displayed an EC50 of 220 nM.
